Source: PMC8062851, “2-Methoxyestradiol and its derivatives inhibit store-operated Ca^2+ entry in T cells: Identification of a new and potent inhibitor” (Biochimica et Biophysica Acta. Molecular Cell Research, 2021)
Like-named read-outs stand apart in the source and are kept apart here.

Tests used:
[1] = test system: SOCE in human Jurkat T cells; test: cells; type: cell-based
Procedure: (§1) Jurkat T-lymphocytes, primary human CD4^+ T cells and H1299 cells were pelleted at 450 ×g for 5 min, rat TMBP at 300 ×g for 8 min at room temperature and were resuspended in 1 ml of either standard JMP medium (Jurkat, H1299 and human CD4^+ T cells) or standard DMEM based medium containing 10% fetal bovine serum (FBS) (v/v) (TMBP cells). Resting TMBP cells (day 5–7 after re-stimulation) after the second to fifth re-stimulation were thawed from liquid nitrogen 12 to 40 h prior to Fura2-loading. After pre-incubation for 5 min at 37 °C, cells were incubated with 4 μM Fura2-AM for 15 min at 37 °C. After addition of the dye, cells were kept in the dark. Afterwards, cells and the dye were diluted by addition of 4 ml standard medium and incubated for another 15 min. Cells were washed twice in Ca^2+ buffer (140 mM NaCl, 5 mM KCl, 1 mM MgSO4, 1 mM CaCl2, 1 mM NaH2PO4, 20 mM HEPES, 5.5 mM glucose; pH 7.4 (NaOH), sterile filtered) and were diluted to a concentration of 2*10^6 cells/ml. Subsequently, cells were kept at room temperature for 20 min for de-esterification before the start of the first measurement.
(§2) In experiments using a Ca^2+ free/Ca^2+ re-addition protocol, cells were pelleted as described for Fura2 loading and Ca^2+ buffer was exchanged by 1 ml nominal Ca^2+ free buffer (140 mM NaCl, 5 mM KCl, 1 mM MgSO4, 1 mM NaH2PO4, 20 mM HEPES, 5.5 mM glucose; pH 7.4 (NaOH), sterile filtered) immediately before starting the measurement. The measurement was controlled by FL Solutions (Version 4.1, Hitachi High-Technologies Corporation). Fura2 was alternatively excited every 2 s at 340 ± 5 nm and 380 ± 5 nm, each 400 ms apart.
Finally, every measurement was calibrated using 0.1% (v/v) Triton X-100 to obtain a maximal ratio and 4 mM EGTA and 30 mM Tris to obtain a minimal ratio.
R is the ratio between F340 and F380. Rmin and Rmax are the minimal and maximal ratio, respectively, obtained by calibration. F380 min and F380 max are the minimal and maximal fluorescence intensity at 380 nm EX during the calibration. Finally, artefacts due to compound additions that usually could easily be identified and lasted about 8 s were deleted from the tracings using FL Solutions (Version 4.1, Hitachi High-Technologies Corporation). The fluorescence intensities of deleted data points were interpolated from those just before and after the deleted time points.
Estradiol, 2ME2 and 2ME2 derivatives were dissolved in DMSO at a concentration of 50 mM and stored at −20 °C for up to 6 months. For concentration-response curves, stock solution was freshly diluted with DMSO to obtain the same DMSO concentration of 0.2% (v/v) for all conditions.
The compound concentrations were then log transformed. Finally, the data were fitted to a corresponding nonlinear fit of variable slope using Prism 6 (GraphPad Software, USA).

IP3 receptors = test: IP3-evoked Ca2+ release in permeabilized Jurkat T cells; type: cell-based, human; details: 2 μM IP3
Procedure: (§3) 3 ∗ 10^7 Jurkat T-lymphocytes per measurement were centrifuged at 450 ×g for 5 min at room temperature. The pellet was rinsed twice, each time using 10 ml permeabilization buffer 1 (120 mM KCl, 10 mM NaCl, 1.2 mM MgCl2, 0.533 mM CaCl2, 1 mM EGTA and 10 mM HEPES, pH 7.2 (KOH), sterile filtered). Subsequently, the pellet was resuspended in 2 ml permeabilization buffer 1 containing 80 μg/ml saponin (Fluka) and the cells were incubated for 10 min at 37 °C. Subsequently, the cells were centrifuged at 450 ×g for 5 min at room temperature and the cell pellet was washed once in 10 ml permeabilization buffer 2 (120 mM KCl, 10 mM NaCl, 1.2 mM MgCl2 and 10 mM HEPES, pH 7.2 (KOH), sterile filtered). Finally, the cells were taken up in 1 ml permeabilization buffer 2, placed into a cuvette and measured at the fluorescence spectrophotometer. Before the start of the measurement, 0.5 μl of 1 mM Fura2 free acid (dissolved in pure water, final concentration: 0.5 μM), 5 μl of 5 mg/ml creatinkinase (dissolved in permeabilization buffer 2, final concentration: 25 μg/ml, 20 U/ml, Roche) and 10 μl of 2 M creatin phosphate (dissolved in permeabilization buffer 2, final concentration: 20 mM, Calbiochem) were added. Fura2 was used to measure the Ca^2+ concentration and creatinkinase and creatin phosphate were used as ATP-regenerating system. The measurement was controlled by FL Solutions (Version 4.1, Hitachi High-Technologies Corporation). Fura2 was alternatively excited every 2 s at 340 ± 5 nm and 380 ± 5 nm, each 400 ms apart. Fluorescence intensity was measured at an emission wavelength of 495 ± 5 nm for both excitation wavelengths. […] Ca^2+ concentrations were calculated according to Grynkiewicz et al. as described earlier in Section 2.4.
(§4) As a quantitative read-out for inhibition of IP3 receptors, the peak [Ca^2+] after IP3 addition was subtracted from the mean [Ca^2+] between 25 and 75 s before IP3 addition (dPeak). […] The rate constant K of the fitted data was used as a quantitative read-out for SERCA pump activity and its inhibition.

SERCA pumps = test: SERCA activity (ATP-induced Ca2+ reuptake) in permeabilized Jurkat T cells; type: cell-based, human
Procedure: as §3, §4

human PBMCs = test: In vitro activation of human PBMCs by anti-CD3, interferon-γ mRNA by qPCR; type: cell-based; details: human PBMC; anti-CD3 stimulation
Procedure: In vitro activation assays were performed in 96-well plates. Briefly, 10^5 PBMCs isolated from human peripheral blood by Ficoll gradient were added onto plates coated with anti-human CD3 monoclonal antibody (5 μg ml^−1 in PBS, clone OKT3, Biolegend). 2ME2 or STX564 dissolved in DMSO were added in varying concentrations (0.01, 0.1, 1, 10 μM). […]. PBMC activation on mRNA level was determined using qPCR on samples collected 24 h after CD3 stimulation.
(§5) Total RNA was isolated using the standard TRIzol method. cDNA was synthesized using the RevertAid First Strand cDNA Synthesis Kit (Thermo Fisher Scientific). Quantitative PCR (qPCR) was performed using the StepOnePlus™ Real-Time PCR System (Applied Biosystems), as previously described [[23], [24], [25]]. Rat TMBP cell data were obtained from three to four independent duplicate measurements. β-actin served as housekeeping gene. Human PBMC data were obtained from two independent healthy donors and duplicate measurements (representative data of one donor are shown). HPRT served as housekeeping gene. For all probes (TaqMan), a combination of 5′-FAM and 3′-TAMRA quencher was used as described.

SOCE in Jurkat T cells = test: Inhibition during activated SOCE (thapsigargin or anti-CD3 OKT3, 1 mM extracellular Ca2+) in Jurkat T cells; type: cell-based, human; details: Homo sapiens, Jurkat, Jurkat T cells stimulated by 1 μM thapsigargin (TG); 1 mM extracellular Ca2+; read-out: IC50 of SOCE inhibition during active SOCE
Procedure: as §1
as §2, with “10^6 Jurkat T-lymphocytes, H1299 cells, TMBP cells or 4*10^6 primary human CD4^+ T cells were added into a 10 × 10 mm quartz glass cuvette (Hellma Analytics, Germany) that was placed into a fluorescence spectrophotometer (F-2710, Hitachi, Japan). In” for “In”, “apart. Fluorescence intensity was measured at an emission wavelength of 495 ± 5 nm for both excitation wavelengths.” for “apart.”
Finally, every measurement was calibrated using 0.1% (v/v) Triton X-100 to obtain a maximal ratio and 4 mM EGTA and 30 mM Tris to obtain a minimal ratio. […]
Besides the Ca^2+ free/Ca^2+ re-addition protocol, we also characterized the effect of STX564 in cells during activated SOCE in the presence of thapsigargin (TG, Fig. 2A,B) or upon stimulation via their TCR/CD3 complex (Fig. 2C). […]. […] Similarly, in Fig. 2C this effect of a partial or full recovery of SOCE was also observed, a few minutes after STX564 addition.

TMBP cells [2] = test: In vitro activation of TMBP cells by MBP, cytokine mRNA by qPCR; type: cell-based, rat; details: TMBP cells + MBP; 6 h; qPCR
Procedure: Myelin basic protein (MBP)-reactive CD4^+ T cells retrovirally transduced to express enhanced GFP (TMBP cells) were established as previously reported. In brief, 6–8 week old female Lewis rats were immunized subcutaneously with 150 μl of emulsion consisting of equal parts of MBP (stock concentration: 1 mg/ml) and complete Freund's adjuvant containing heat-inactivated Mycobacterium tuberculosis extract (Difco; stock concentration: 2 mg/ml). Draining lymph nodes were harvested and passed through a cell strainer (40 μm) 9–10 days after immunization. The cell suspension was co-cultured with GP + E86 packaging cell lines producing replication-deficient retroviruses in the presence of 10 μg/ml MBP. Murine IL-2 was added to the culture for T cell expansion from day 2–4 after stimulation. The cell lines underwent 3–4 cycles of stimulation before being used for in vitro and in vivo experiments. […] Upon stimulation, they produced interferon-γ and IL-17.
(§6) In vitro activation assays were performed in 96-well plates. […]. TMBP cell activation on mRNA level was determined using qPCR and on surface protein level using surface marker staining and subsequent flow cytometry analysis.
as §5

TMBP cells [3] = test: In vitro activation of TMBP cells by MBP, CD25 surface expression by flow cytometry; type: cell-based, rat
Procedure: as §6
To assess in vitro T cell activation, surface staining for CD25 (OX39, Bio-Rad) was performed. APC-labelled goat anti-mouse antibody (Jackson ImmunoResearch) was used as secondary antibody. Mouse IgG1κ (MOPC 31C, Sigma-Aldrich) was used as control.
Cytofluorometric analysis was carried out with a CytoFLEX S (Beckman Coulter) operated by CytExpert software (Beckman Coulter). All procedures were performed at 4 °C. Data were analyzed by using FlowJo software (FlowJo, LLC).

[4] = Homo sapiens, Jurkat, Jurkat T cells, Ca2+ free/Ca2+ re-addition protocol, plateau 425-475 s after re-addition of 1 mM Ca2+, read-out: IC50 of SOCE inhibition
[5] = Jurkat T cells, Ca2+ free/Ca2+ re-addition protocol, plateau 425-475 s after re-addition of 1 mM Ca2+, read-out: IC50 of SOCE inhibition
[6] = Jurkat T cells, Ca2+ free/Ca2+ re-addition protocol
[7] = Homo sapiens, Jurkat, read-out: IC50 of SOCE inhibition, Jurkat T cells, Ca2+ free/Ca2+ re-addition protocol, plateau 425-475 s after re-addition of 1 mM Ca2+

CCc1cc2c(cc1OS(N)(=O)=O)CCC1C2CCC2(C)C(C[N+](=O)[O-])CCC12 (centres unmarked) [STX1177]
IC50 [1, 4]: 1.3 µM | IC50 [1, 5]: ~1 µM

CCc1cc2c(cc1O)CCC1C2CCC2(C)C(O)CCC12 (centres unmarked) [STX139, 2-ethyl-estradiol]
IC50 [1, 4]: ~12 µM | concentration giving almost complete inhibition of Ca2+ entry [1, 6]: 50 µM

COc1cc2c(cc1OS(N)(=O)=O)CCC1C2CCC2(C)C(O)CCC12 (centres unmarked) [STX68]
IC50 ([1]; Homo sapiens, Jurkat, read-out: IC50 of SOCE inhibition): 25 µM

CCc1cc2c(cc1O)CCC1C2CCC2(C)C(CC#N)CCC12 (centres unmarked) [STX505]
IC50 [1, 7]: 1.7 µM

CCc1cc2c(cc1O)CCC1C2CCC2(C)C(C[N+](=O)[O-])CCC12 (centres unmarked) [STX1175]
IC50 [1, 4]: 1.4 µM

C/C=C(/C)C(=O)O[C@H]1C(C)=C2[C@H]([C@@H]1OC(=O)CCCCCCC)[C@@](C)(OC(C)=O)C[C@H](OC(=O)CCC)[C@@]1(O)[C@H]2OC(=O)[C@@]1(C)O [thapsigargin]
effect on IP3-evoked Ca2+ release (IP3 receptors): eliminating effects of IP3 | effect on SERCA activity (initial slope of [Ca2+] upon ATP addition) (SERCA pumps): almost completely abolished

CCc1cc2c(cc1OS(N)(=O)=O)CCC1C2CCC2(C)C(OS(N)(=O)=O)CCC12 (centres unmarked) [STX243]
IC50 [1, 4]: 5.2 µM | concentration giving almost complete inhibition of Ca2+ entry [1, 6]: 25 µM | IC50 fold smaller as compared to STX139 ([1]; Jurkat T cells, SOCE): approx. 2 fold

COc1cc2c(cc1OS(N)(=O)=O)CCC1C2CCC2(C)C(CC#N)CCC12 (centres unmarked) [STX641]
IC50 [1, 4]: 1.7 µM | fold more potent than the 17β-hydroxyl-compound (2ME2) ([1]; Jurkat T cells, SOCE): 10 fold

COc1cc2c(cc1O)CCC1C2CCC2(C)C(CC#N)CCC12 (centres unmarked) [STX640]
IC50 [1, 7]: 2.1 µM | fold more potent than the 17β-hydroxyl-compound (2ME2) ([1]; Jurkat T cells, SOCE): 10 fold

COc1cc2c(cc1O)CC[C@@H]1[C@@H]2CC[C@]2(C)[C@@H](O)CC[C@@H]12 [2ME2, 2-Methoxyestradiol]
fold higher concentration necessary compared to STX564 for antagonist effect on interferon-γ expression (human PBMCs): approx. 10 fold | IC50 (SOCE in Jurkat T cells): 71 µM | concentration at which TCR/CD3-evoked pro-inflammatory cytokine expression was significantly reduced (TMBP cells [2]): significantly higher concentrations | concentration at which up-regulation of CD25 was significantly reduced (TMBP cells [3]): much higher concentration | IC50 [1, 4]: 20 µM | fold higher potency compared to estradiol in inhibiting Ca2+ entry ([1]; Jurkat T cells, SOCE): 2.5 fold

CCc1cc2c(cc1O)CCC1C2CCC2(C)C(CC(C)=O)CCC12 (centres unmarked) [STX1306]
IC50 [1, 4]: 1.6 µM

CCc1cc2c(cc1OS(N)(=O)=O)CCC1C2CCC2(C)C(CC(C)=O)CCC12 (centres unmarked) [STX1307]
IC50 [1, 4]: 1.1 µM | IC50 [1, 5]: ~1 µM

C[C@]12CC[C@@H]3c4ccc(O)cc4CC[C@H]3[C@@H]1CC[C@@H]2O [E2, estradiol]
IC50 [1, 4]: 55 µM
